The values that follow come from patent US20260174786A1, “A NITROGEN-CONTAINING SPIROCYCLIC COMPOUND, PHARMACEUTICAL COMPOSITION AND USE THEREOF” (Prime Gene Therapeutics Co., Ltd., priority 2022, published 2026).

The nature of data set [1]: Parallel artificial membrane permeability test (Lipid PAMPA). In kind it is in vitro ADME. The settings on record: for recovery at 16 h, 10 μM: pH 7.4, test concentration 10 μM, read-out: rate of recovery %; for −LOG Pe / Papp at 16 h, 10 μM: test concentration 10 μM; for Papp at 16 h, 10 μM: pH 7.4, 16 hours, read-out: Effective penetration rate Pe. On the procedure: 1. Preparing the test compound in 10 mM DMSO and diluting 1000 fold to 10 μM with PBS. 2. Ultrasonic treating lecithin in dodecane at a rate of 18 mg/ml. 3. Adding 300 μL/well of 10 μM test compound solution into the donor chamber (bottom) in triplicate. 4. Adding 5 μL/well lecithin/dodecane to the receptor chamber (top), and then adding 300 μL/well PBS (pH=7.4) to the receptor chamber within 10 minutes. 5. Transferring 50 μL of 10 μM test compound onto a sample plate containing 200 μL of cold methanol, with IS * being C0. 6. Inserting the receptor chamber into the donor chamber and incubating at 25° C. for 16 hours. 7. After 16 hours of incubation, transferring 50 μL from the receptor and donor compartments to a sample plate containing 200 μL of cold methanol and IS *. 8. Centrifuging the sample plate at 4° C. and 3220 g for 40 minutes. 9. Transferring 100 μL of supernatant to an analysis plate containing an appropriate volume of H2O for LC-MS/MS analysis. 10. Data analysis.
A general note: In PAMPA a lipid-coated filter parts donor from acceptor wells.

Data set [2] has as its target T1, hTRPV3 (Homo sapiens, UniProt Q8NET8).
T1 construct: expressed in transfected cells; host or cells: HEK-293
T1 sequence (Q8NET8 1-790): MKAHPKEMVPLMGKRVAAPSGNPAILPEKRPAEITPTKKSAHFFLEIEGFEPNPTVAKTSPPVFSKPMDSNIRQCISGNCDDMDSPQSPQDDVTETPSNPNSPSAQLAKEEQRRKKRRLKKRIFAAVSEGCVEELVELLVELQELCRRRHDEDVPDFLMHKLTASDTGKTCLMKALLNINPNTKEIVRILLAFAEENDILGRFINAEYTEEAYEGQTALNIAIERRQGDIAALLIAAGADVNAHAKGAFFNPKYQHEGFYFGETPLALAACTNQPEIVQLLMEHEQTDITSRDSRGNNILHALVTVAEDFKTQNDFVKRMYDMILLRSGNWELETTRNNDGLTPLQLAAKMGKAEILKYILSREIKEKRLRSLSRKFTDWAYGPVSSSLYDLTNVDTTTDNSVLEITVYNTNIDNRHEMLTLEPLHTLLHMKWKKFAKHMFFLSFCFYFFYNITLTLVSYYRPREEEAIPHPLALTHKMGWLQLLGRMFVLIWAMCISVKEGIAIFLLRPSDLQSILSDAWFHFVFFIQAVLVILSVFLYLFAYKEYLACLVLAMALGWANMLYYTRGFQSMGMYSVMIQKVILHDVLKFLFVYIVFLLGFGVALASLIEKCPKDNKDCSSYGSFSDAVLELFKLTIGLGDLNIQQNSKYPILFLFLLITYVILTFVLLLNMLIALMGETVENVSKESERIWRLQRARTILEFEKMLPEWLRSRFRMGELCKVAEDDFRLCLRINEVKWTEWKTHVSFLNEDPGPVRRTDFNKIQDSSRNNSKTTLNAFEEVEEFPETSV
As to the kind of experiment: Whole cell patch clamp inhibition rate test on HEK-293 cells instantaneously expressing TRPV3. The class given is cell-based. The settings on record: HEK293. In outline: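 HEK-293 cells transiently transfected with TRPV3, recorded next-but-one day by whole-cell patch clamp at room temperature: holding −80 mV, ramp −100 to 100 mV over 100 ms every 5 s, peak current monitored. Ascending concentrations perfused, 5 min each; each cell its own control, at least two cells per concentration.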
On the technique in general: Patch clamp records ionic current or voltage across a cell membrane.

In data set [3] the target is hTRPV1 (Homo sapiens, UniProt Q8NER1). As to the kind of experiment: Inhibition rate on different hTRPs: hTRPV1. In kind it is cell-based.
Chain of hTRPV1 (Q8NER1 whole entry): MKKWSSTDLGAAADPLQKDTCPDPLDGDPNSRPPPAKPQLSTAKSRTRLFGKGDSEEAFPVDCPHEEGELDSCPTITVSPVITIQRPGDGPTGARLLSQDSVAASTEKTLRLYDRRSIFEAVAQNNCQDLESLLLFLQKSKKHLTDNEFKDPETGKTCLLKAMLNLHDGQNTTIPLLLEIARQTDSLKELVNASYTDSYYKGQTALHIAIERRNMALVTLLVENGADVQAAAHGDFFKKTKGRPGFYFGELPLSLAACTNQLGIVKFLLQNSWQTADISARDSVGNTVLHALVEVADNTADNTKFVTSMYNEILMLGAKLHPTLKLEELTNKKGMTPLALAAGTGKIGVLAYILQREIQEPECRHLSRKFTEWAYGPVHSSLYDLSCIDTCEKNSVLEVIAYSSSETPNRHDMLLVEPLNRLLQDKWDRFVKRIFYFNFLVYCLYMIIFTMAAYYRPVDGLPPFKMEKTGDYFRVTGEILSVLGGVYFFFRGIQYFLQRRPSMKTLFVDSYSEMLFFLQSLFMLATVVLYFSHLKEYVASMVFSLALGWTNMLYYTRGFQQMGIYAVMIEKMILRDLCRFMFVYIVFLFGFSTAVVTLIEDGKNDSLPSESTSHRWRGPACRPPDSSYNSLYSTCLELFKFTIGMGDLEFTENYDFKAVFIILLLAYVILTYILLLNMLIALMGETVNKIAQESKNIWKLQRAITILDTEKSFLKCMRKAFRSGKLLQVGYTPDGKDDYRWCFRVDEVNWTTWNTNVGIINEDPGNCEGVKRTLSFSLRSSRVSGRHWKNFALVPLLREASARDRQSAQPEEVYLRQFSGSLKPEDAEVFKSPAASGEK
The mark [4] stands for this setting: hTRPV3, single concentration 0.3 μM.

As a reminder, the inhibition is the drop in the measured response relative to a control, in per cent. A lower inhibition goes with a response near the control. Consider `O=C(c1ccc(F)cn1)N1CCC2(CC(O)c3cc(-c4ccccc4C4CC4)ccc32)C1` (centres unmarked) [Example 15, (5-(2-cyclopropylphenyl)-3-hydroxy-2,3-dihydrospiro[indene-1,3′-pyrrolidine]-1′-yl)(5-fluoropyridin-2-yl) ketone], for which, in data set [1], the recovery at 16 h, 10 μM stood at 16.9%; the “−LOG Pe” value amounted to 4.85; the Papp at 16 h, 10 μM is 14.1 ×10⁻⁶ cm/s. The same compound gave an inhibition at 0.3 µM in data set [2] (setting [4]) of 70 to 100%.

Turning to `O=C(c1ccc(F)cn1)N1CC[C@@]2(C[C@@H](O)c3cc(-c4ccccc4C4CC4)ccc32)C1` [Example 21, ((1S,3R)-5-(2-cyclopropylphenyl)-3-hydroxy-2,3-dihydrospiro[indene-1,3′-pyrrolidine]-1′-yl)(5-fluoropyridin-2-yl)ketone], in data set [1], the recovery at 16 h, 10 μM is 18.8%; the “−LOG Pe” value was 4.79; the Papp at 16 h, 10 μM is 16.3 ×10⁻⁶ cm/s. Also, testing at 0.3 µM in data set [3] (hTRPV1, 0.3 μM) gave an inhibition of 5.62%. In addition, the Selectivity ratio in data set [3] (inhibition rate on TRPV3 / inhibition rate on hTRPV1, 0.3 μM) amounted to 16.0X. Also, testing at 0.3 µM in data set [2] (hTRPV3, 0.3 μM) gave an inhibition of 89.6%. Besides, the inhibition at 0.3 µM in data set [2] (setting [4]) was 70 to 100%.
